US6951658B1, “Emu-based compositions for mental well-being and method of use” (Pearson Research & Development Limited, priority 2003, dated 2005)

How the values were obtained:
[1] = side effects in the Example 2 patient; format: in vivo, human; conditions: Example 2, person, oral
Excerpt: Example 2 Mature human ingests 7 to 10 drops of emu oil per day, […].

[2] = subjects with age-related memory decline, 60 days of treatment; cited from earlier work
[3] = humans; cited from earlier work
[4] = rats; cited from earlier work
[5] = multi-infarct dementia patients; cited from earlier work

Compound | side effects [1] | verbal memory functions [2] | alcohol-induced memory deficits [3] | anti-anxiety effects [4] | memory and learning [4] | attention [5] | consolidation of memory [5] | psychological tests of short-term retrieval, long-term retrieval and long-term storage of memory [5]
CC[C@H](C)C(=O)O[C@H]1C[C@@H](C)C=C2C=C[C@H](C)[C@H](CC[C@@H]3C[C@@H](O)CC(=O)O3)[C@H]21 [Mevocore] | has suffered side effects, including hair loss |  |  |  |  |  |  | 
O=C(O)[C@@H]1CCC(O)=N1 [pyroglutamate, 2-oxo-pyrrolidone carboxylic acid] |  | effective in improving verbal memory functions | effective | has anti-anxiety effects | improves memory and learning | significant increase of attention | statistically significant improvement | improvement
